Source: patent EP3553061A1, “NEW INHIBITORS OF BONE RESORPTION” (CENTRE NATIONAL DE LA RECHERCHE SCIENTIFIQUE (CNRS), priority 2018, dated 2019)
Where “and” joins values, the source holds several entries; their conditions need not be identical. Equal values may be shown once. Read-outs that look alike come from different tables or passages of the source.

Key:
ovariectomized mice = assay: Bone dynamics parameters in ovariectomized mice; assay type: in vivo, mouse; details: OVX mice
Description: The ovariectomized mouse was used as an in vivo model of pathological bone loss. […] Each group contained ten female C57BL/6J mice that were fourteen weeks of age at the beginning of in-life phase of the study. At the beginning of the in-life phase (at study day 0), mice were weighed and their surgical ovariectomy (OVX) and control (SHAM) operations were performed under analgesia and anaesthesia. […] was injected intra peritoneally (i.p.) to OVX animals, 20 mg/kg once (q.d., dose 1) or twice (b.i.d., dose 2) daily for 25 days, in a vehicle solution containing 0.485% carboxymethylcellulose (CMC) and 3% Tween 80. Control mice received the same volume of vehicle. The effects of treatment with reference compound zoledronate (100 μg/kg, subcutaneously, twice a week.) were studied by comparing OVX mice treated with zoledronate and vehicle with OVX control mice treated with vehicle. At study days 21 and 26, bone was labelled with subcutaneous injections of oxytetracycline and calcein green, respectively, in order to enable the analysis of optional dynamic parameters in bone histomorphometry. Blood for serum samples were harvested from saphenous vein at days -1, 13 and 27 of the study for bone dynamics marker dosage.

[1] = target: T1, Dbl exchange domain of TRIO (Homo sapiens, UniProt O75962); assay: In vitro Rac1 nucleotide exchange (mantGDP fluorescence) with purified recombinant proteins, TRIO; assay type: biochemical; details: inhibitor 20 and 60 µM
T1 construct: catalyzed by the DHR2 exchange domain of Dock5 or by the Dbl exchange domain of TRIO; made in house; host or cells: E. coli
Description: (§1) The effect of the molecules has been tested on the nucleotide exchange reaction by the GTPase Rac1 catalyzed by the DHR2 exchange domain of Dock5 or by the Dbl exchange domain of TRIO, using purified recombinant proteins produced in E. coli bacteria (Vives, Cres et al., 2015).
(§2) The activity of the inhibitors is measured by fluorescence spectroscopy on 96-well plates with a FlexStation 3 fluorimeter, in a reaction volume of 150 µL, without stirring, at a temperature of 26 ° C. Each plate contains 4 inhibitors at two concentrations (20 and 60 µM), 2 GEFs (DOCK5 and TRIO) and includes controls without inhibitor (1% final DMSO). The inhibitors are diluted to DMSO at an intermediate concentration of 2 or 6 mM, ie 1% final DMSO. Rac1-mantGDP (2 µM), DOCK5 or TRIO (0,2 µM) and the inhibitors are mixed immediately before the beginning of measurements. The exchange reaction is triggered by series of 8 wells in parallel by addition of 100 µM of GTP with mixing by pipetting (Flex mode). The kinetics is followed during 800 seconds. All the measurements are made in duplicate on the same plate. The total playing time of a plate is about 80 minutes. The kinetics of exchange are analyzed with a mono-exponential model F = F0 + ΔFe - kt with the KaleidaGraph ™ software, where F0 is the initial fluorescence and k (or kobs) is the exchange rate constant.

[2] = target: T2, DHR2 exchange domain of Dock5 (Homo sapiens, UniProt Q9H7D0); assay: In vitro Rac1 nucleotide exchange (mantGDP fluorescence) with purified recombinant proteins, Dock5; assay type: biochemical; details: inhibitor 20 and 60 µM
T2 construct: catalyzed by the DHR2 exchange domain of Dock5 or by the Dbl exchange domain of TRIO; made in house; host or cells: E. coli
Description: as §1, §2

human Dock5 = target: T3, human Dock5 (Homo sapiens, UniProt Q9H7D0); assay: Pull down assay of Rac activation by human Dock5 DHR2 in transfected 293T cells; assay type: cell-based; details: for inhibition at 50 µM / inhibition at 100 µM: HEK-293T; for IC50: 1 hour treatment
T3 construct: plasmid expressing the catalytic DHR2 domain of mouse or human Dock5; expressed in transfected cells; host or cells: 293T cells
Description: (§3) Compounds E73, E88 and E78 were tested for their inhibiting effect of the activation of Rac by mouse Dock5 of and for certain human Dock5 according to a screening test using a pull down assay as represented in Figure 1.
Methodology (Figure 1): cells 293T seeded onto 100 mm diameter plates in a DMEM culture medium containing 10% serum in an incubator in 5.5% CO2 humidified atmosphere at 37°C. When they reach the density of 5x10^6 cells per plate, cells are transfected with 8 µg of plasmid expressing the catalytic DHR2 domain of mouse or human Dock5 in order to activate endogenous GTPase Rac. After 24 hours, the cells are lifted using trypsin and are seeded 10^6 per well in 6-well plates of 35 mms in diameter. The following day, the cells are put in contact during one hour with the compound, in a mother solution at 20 mM into 100% DMSO, to a test concentration of 100 µM into 0.5% DMSO in the DMEM medium containing 0.1% of BSA. The basal activation of Rac by Dock5 is measured from the cells treated with 0.5% DMSO. After treatment, the cells are observed under the optical microscope to make sure of the absence of any toxic effect of the compound. If cell suffering is detected, the test is invalidated and the compound is retested at a lower dosage. The cells are then lysed in 100 µl of the pull down buffer (10% glycerol, 50 mm Tris pH 7.4, 100 mM NaCl, 1% IGEPAL® CA-630 (SIGMA I3021), 2 mM MgCl2 supplemented with proteases inhibitors) and the lysate is incubated during one hour with 20 µg of sepharose beads coupled with the fusion protein GST-PAK-CRIB, which binds specifically the activated form of GTPase Rac, which is bound to GTP. After centrifugation and washings, the proteins associated with the beads, including active Rac GTPase, are denatured and loaded on an SDS PAGE gel. […] For each compound tested, the level of active Rac GTPase is quantified using the Image J software and is normalized to the concentration of total protein in the whole cell lysate. The efficiency of the molecule is defined by the level of active Rac after treatment compared to the level of active Rac in the cells treated with DMSO (control). An activity is considered as inhibitory if the level of Rac activation decreases by at least 10%, 20%, in particular at least 30%, 40%, and preferably at least 50% compared to the control treated with DMSO (Table 1).
The same approach was used to test the potency of molecules of the 48ED family, on the activity of human Dock5 DHR2 (Table 2). Table 2: Inhibitory activity of the compounds of the 48ED family on human Dock5 activity.

[3] = cited from earlier work
mouse Dock5 = target: T4, mouse Dock5 (Mus musculus, UniProt B2RY04); assay: Pull down assay of Rac activation by mouse Dock5 DHR2 in transfected 293T cells; assay type: cell-based
T4 construct: plasmid expressing the catalytic DHR2 domain of mouse or human Dock5; expressed in transfected cells; host or cells: 293T cells
Description: as §3
Methodology (Figure 1): cells 293T seeded onto 100 mm diameter plates in a DMEM culture medium containing 10% serum in an incubator in 5.5% CO2 humidified atmosphere at 37°C. When they reach the density of 5x10^6 cells per plate, cells are transfected with 8 µg of plasmid expressing the catalytic DHR2 domain of mouse or human Dock5 in order to activate endogenous GTPase Rac. After 24 hours, the cells are lifted using trypsin and are seeded 10^6 per well in 6-well plates of 35 mms in diameter. The following day, the cells are put in contact during one hour with the compound, in a mother solution at 20 mM into 100% DMSO, to a test concentration of 100 µM into 0.5% DMSO in the DMEM medium containing 0.1% of BSA. The basal activation of Rac by Dock5 is measured from the cells treated with 0.5% DMSO. […] If cell suffering is detected, the test is invalidated and the compound is retested at a lower dosage. […] For each compound tested, the level of active Rac GTPase is quantified using the Image J software and is normalized to the concentration of total protein in the whole cell lysate. […]

[4] = 20 mg/kg, i.p., b.i.d., first two weeks of in-life phase, vs OVX vehicle
[5] = 20 mg/kg, i.p., q.d. and b.i.d., study day 28, vs OVX vehicle
[6] = 20 mg/kg, i.p., q.d. and b.i.d, study day 28
[7] = Table 3, human Dock5, test concentration 100 µM, 1 hour, replicate values, 100 µM
[8] = Table 3, human Dock5, test concentration 100 µM, 1 hour, replicate values, read-out: Inhibition
[9] = zoledronate 100 µg/kg, subcutaneously, twice a week, study day 28, vs OVX vehicle

T3 sequence (Q9H7D0 1231-1642 limits assumed): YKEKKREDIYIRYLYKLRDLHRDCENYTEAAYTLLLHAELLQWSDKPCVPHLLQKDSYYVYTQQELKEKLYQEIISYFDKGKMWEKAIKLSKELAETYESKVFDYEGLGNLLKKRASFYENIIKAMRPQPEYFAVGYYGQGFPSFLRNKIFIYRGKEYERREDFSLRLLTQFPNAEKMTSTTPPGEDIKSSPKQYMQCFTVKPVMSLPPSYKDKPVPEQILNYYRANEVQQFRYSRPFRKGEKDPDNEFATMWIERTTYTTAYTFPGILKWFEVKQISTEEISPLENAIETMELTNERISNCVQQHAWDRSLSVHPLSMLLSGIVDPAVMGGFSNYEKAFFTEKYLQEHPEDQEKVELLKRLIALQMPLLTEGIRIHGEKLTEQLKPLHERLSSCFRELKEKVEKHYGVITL
T4 sequence (B2RY04 1231-1642 limits assumed): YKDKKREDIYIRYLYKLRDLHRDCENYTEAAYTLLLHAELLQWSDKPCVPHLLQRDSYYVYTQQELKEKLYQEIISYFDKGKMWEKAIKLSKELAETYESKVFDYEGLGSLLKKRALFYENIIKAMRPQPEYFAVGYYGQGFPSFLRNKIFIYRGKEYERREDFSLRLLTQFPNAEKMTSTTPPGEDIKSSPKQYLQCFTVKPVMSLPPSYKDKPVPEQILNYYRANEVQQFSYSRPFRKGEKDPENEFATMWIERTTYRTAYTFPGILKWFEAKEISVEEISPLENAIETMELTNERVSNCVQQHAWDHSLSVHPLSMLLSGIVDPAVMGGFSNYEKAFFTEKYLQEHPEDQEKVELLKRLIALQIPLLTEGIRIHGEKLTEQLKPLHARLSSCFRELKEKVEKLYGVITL
T2 sequence (Q9H7D0 1231-1642 limits assumed): as the sequence (Q9H7D0 1231-1642 limits assumed) above

O=S1(=O)N(c2ccccc2)C[C@H](O)[C@]12CCN(Cc1ccc(Cl)cc1)C2 (racemic) [E197, rac-(4S,5R)-7-(4-chlorobenzyl)-4-hydroxy-2-phenyl-1-thia-2,7-diazaspiro[4.4]nonane 1,1-dioxide]
trabecular separation (Tb.Sp) (ovariectomized mice; 20 mg/kg, i.p., b.i.d., bone histomorphometry, study day 28, vs OVX vehicle): decreased | relative change in serum PINP levels (ovariectomized mice; 20 mg/kg, i.p., b.i.d., entire in-life phase, vs OVX vehicle): decreased | relative change in serum CTX-I levels (ovariectomized mice; [4]): decreased | relative change in serum PINP levels (ovariectomized mice; [4]): decreased | trabecular bone volume fraction (BV/TV) in femoral and tibial metaphyses (ovariectomized mice; 20 mg/kg, i.p., b.i.d., study day 28, vs OVX vehicle): increased | trabecular number (Tb.N) in tibial metaphysis (ovariectomized mice; 20 mg/kg, i.p., b.i.d., µCT, study day 28, vs OVX vehicle): increased | serum levels of bone turnover biomarker osteoclacin (ovariectomized mice; 20 mg/kg, i.p., q.d. and b.i.d., entire in-life phase): did not decreased | cortical bone specific surface (BS/BV) in tibial diaphysis (ovariectomized mice; [5]): decreased | cortical thickness (Ct.Th) in tibial diaphysis (ovariectomized mice; [5]): increased | mineral apposition rate (MAR) in trabecular bone in femoral metaphysis (ovariectomized mice; [6]): did not decreased | mineralizing surface per bone surface (MS/BS) in trabecular bone in femoral metaphysis (ovariectomized mice; [6]): did not decreased | body weight (ovariectomized mice; in-life phase (day 0 to day 28)): did not affect body weight | effect on the nucleotide exchange reaction of Rac1 catalyzed by TRIO [1]: not TRIO | effect on the nucleotide exchange reaction of Rac1 catalyzed by Dock5 [2]: inhibit Dock 5 | inhibition at 50 µM (human Dock5; Table 3, human Dock5, at 50µM): 80% | Inhibition (human Dock5; [7]): 55% and 90% | IC50 (human Dock5; human Dock5): 36 µM

O=S1(=O)N(c2ccccc2)C[C@H](O)[C@]12CCN(Cc1ccc(Cl)c(Cl)c1)C2 (racemic) [E202, rac-(4S,5R)-7-(3,4-dichlorobenzyl)-4-hydroxy-2-phenyl-1-thia-2,7-diazaspiro[4.4]nonane 1,1-dioxide]
effect on the nucleotide exchange reaction of Rac1 catalyzed by TRIO [1]: not TRIO | effect on the nucleotide exchange reaction of Rac1 catalyzed by Dock5 [2]: inhibit Dock 5 | inhibition at 50 µM (human Dock5; Table 3, human Dock5, at 50µM): 95% | Inhibition (human Dock5; Table 3, human Dock5, at 50µM): 90% | IC50 (human Dock5; human Dock5): 29 µM

O=S(=O)(Nc1cc(Cl)cc(Cl)c1)c1ccccc1 [C21, N-(3,5-dichlorophenyl)-benzenesulfonamide]
bone formation ([3]; mice treated daily along 4 weeks): Bone formation is maintained | histological observation of all tissues ([3]; mice): did not reveal any anomaly | development of bone metastases ([3]; mouse): reduces the development of bone metastases | bone resorption ([3]; mouse, postmenopausal osteoporosis, inflammatory and metastasis-induced bone loss models, intravenous or intraperitoneal administration): inhibits effectively the bone resorption

O=S1(=O)N(c2ccccc2)C[C@H](O)[C@]12CCN(Cc1cccc(Cl)c1)C2 [E73]
inhibition at 100 µM (mouse Dock5; HEK-293T, 100 µM, species of Dock5 not given): ~95% | IC50 (mouse Dock5; mouse DHR2 of Dock5): 17 µM | inhibition at 100 µM (human Dock5; Table 1a, test concentration 100 µM, 1 hour, replicate values, Negative = Rac activation does not decrease, read-out: Inhibition Dock5 (%) Human): 70% | Inhibition Dock5 (%) Human (human Dock5; Table 1a, test concentration 100 µM, 1 hour, replicate values, Negative = Rac activation does not decrease, 100 µM): 60% and 55% | Inhibition (human Dock5; Table 2, human Dock5 DHR2, test concentration 100 µM, 1 hour, replicate values, Negative = Rac activation does not decrease, 100 µM): 55% and 95% (3×) and 50% and 90% (2×) | IC50 (human Dock5; human Dock5): 36 µM

COc1ccc(N2CCC3(CCN(Cc4cccc(Cl)c4)C3)C2=O)cc1C (stereo not drawn) [E228, 7-(3-chlorobenzyl)-2-(4-methoxy-3-methylphenyl)-2,7-diazaspiro[4.4]nonan-1-one]
inhibition at 50 µM (human Dock5; Table 3, human Dock5, at 50µM): 65% | IC50 (human Dock5; human Dock5): 8 µM

O=S1(=O)N(c2ccccc2)C[C@H](OCCO)[C@]12CCN(Cc1ccccc1)C2 [E229]
inhibition at 50 µM (human Dock5; Table 3, human Dock5, at 50µM): 65%

CNC(=O)CO[C@H]1CN(c2ccccc2)S(=O)(=O)[C@@]12CCN(Cc1ccccc1)C2 [E230]
Inhibition (human Dock5; [7]): 80% and 45% and 30% and 70%

CCOC(=O)CO[C@H]1CN(c2ccccc2)S(=O)(=O)[C@@]12CCN(Cc1ccccc1)C2 [E231]
inhibition at 50 µM (human Dock5; Table 3, human Dock5, at 50µM): 70%

O=C(O)CO[C@H]1CN(c2ccccc2)S(=O)(=O)[C@@]12CCN(Cc1ccccc1)C2 [E232]
Inhibition (human Dock5; [7]): 40% (2×) and 10%

O=S1(=O)N(C2CCCCC2)C[C@H](O)[C@]12CCN(Cc1ccccc1)C2 [E233]
inhibition at 100 µM (human Dock5; [8]): 70% | Inhibition (human Dock5; [7]): 60%

O=S1(=O)N(C2CCCCC2)C[C@@H](O)[C@]12CCN(Cc1ccccc1)C2 [E234]
Inhibition (human Dock5; [7]): 85% and 55% and 40% and 60%

O=S1(=O)N(c2cccc(Cl)c2)C[C@H](O)[C@]12CCN(Cc1ccccc1)C2 [E235]
inhibition at 100 µM (human Dock5; [8]): 80% | Inhibition (human Dock5; [7]): 85%

O=S1(=O)N(c2cccc(Cl)c2)C[C@@H](O)[C@]12CCN(Cc1ccccc1)C2 [E236]
inhibition at 50 µM (human Dock5; Table 3, human Dock5, at 50µM): 20% | inhibition at 100 µM (human Dock5; [8]): 70%

O=P(O)(O)C(O)(Cn1ccnc1)P(=O)(O)O [Zoledronate, reference compound]
relative change in serum osteoclacin levels (ovariectomized mice; zoledronate 100 µg/kg, subcutaneously, twice a week, in-life phase, vs OVX vehicle): decreased | mineral apposition rate (MAR) in trabecular bone in femoral metaphysis (ovariectomized mice; [9]): decreased | mineralizing surface per bone surface (MS/BS) in trabecular bone in femoral metaphysis (ovariectomized mice; [9]): decreased
